Columns and labels:
[1] = tested on: Salmonella typhimurium strains TA 98, TA 100, TA 1535, TA 1537, TA 1538, TA 1978; experiment: Ames assay (spot test), revertant colonies; type: cell-based
Protocol: This means that aziridine compounds, 1, 10, or 11, will not cause mutations in DNA arising from potential changes in frame shift and/or base pairing. Compounds 1, 10 and 11 were tested for mutagenic properties using the following experimental procedure.
Potential mutagenic and carcinogenic properties of the compounds were evaluated with standard Ames assay procedures (Ames et al, "Mutation Res.", 31, p. 347, 1975). This assay used strains of Salmonella typhimurium selected for sensitivity and specificity in being reverted from a histidine requirement back to prototrophy by a wide variety of mutagens. Potential changes in frameshift were evaluated using strains TA 98, TA 1537 and TA 1538, while changes in base pairing were detected using strains TA 100 and TA 1535. In addition, strain TA 1978 was used, in combination with TA 1538, to evaluate whether the agent killed bacteria by damage to DNA that could be repaired by this strain. Initially, the compounds were screened using the spot test, in which 1000 μgm of material dissolved in 10 μl of DNSO was applied to the middle of the plate.
Dose-response tests were not performed because the results were negative. All the tests were carried out in the presence and absence of an S9 rat liver preparation and contained a positive control (2-acetylaminofluorene,AAF) and a negative control (DMSO).

[2] = tested on: tobacco hornworm larvae (newly ecdysed fifth-instar); experiment: Topical application to tobacco hornworm larvae; type: in vivo, Manduca sexta
Protocol: The test compounds were dissolved either in acetone or hexane and applied to the integument of the test insect with a micro applicator. Newly ecdysed fifth-instar tobacco hornworm larvae weighing between 1-1.5 g were used and toxicity data were obtained in the same way as previously described.

[3] = tested on: tobacco hornworm (Manduca sexta) larvae; experiment: Tobacco hornworm growth and developmental responses to feeding on diets containing the compounds; type: in vivo
Protocol: The compounds produced and described in Example 1 were then tested for pesticidal activity against the tobacco hornworm (Manduca sexta). The screening procedure for these tests began with the larval stage and continued through the pupal and adult stages and finally evaluated egg production. The studies thus permitted the evaluation of the effects of the compounds over several subsequent developmental stages in the total life cycle of the insect, giving estimates of acute toxicity (insecticidalor larvicidal activity) as well as prolonged or delayed effects on development (growth regulation) and reproduction (chemosterilization). The latter are of special importance in conjunction with the integrated pest management approach to insect control.
The test compounds were incorporated into the artificial diet of tobacco hornworm larvae and their subsequent growth and developmental responses were monitored using the following parameters: larval mortality including determination of LD50 values, rate of larval development and weight gain, percent pupation, pupal weight and degree of deformities, percent adult emergence and measures of reproductive capacity such as the number of developed ooctyes, fecundity and fertility. The protocol for the screening tests has been developed over a number of years by Dahlman et al., Comp. Biochem. Physiol. 51A, 33, (1975); Comp. Biochem. Physiol., 52A, 105 (1975); Ent. Exp. et Appl., 22, 123 (1977); Palumbo and D. L. Dahlman, J. Econ. Entomol. 71, 674 (1978); D. L. Dahlman, Ent. Exp. et Appl., 24, 327 (1978).
Each treatment used 15 newly ecdysed fifth-instar larvae. Death of larvae within a few hours to several days of initial exposure was considered to be acute toxicity. However, the compounds may reduce the maximum size attained by larvae and/or may retard growth so that larvae require additional time to attain their maximum size. Developmental parameters subsequent to the feeding stage also may be affected. […] Mortality may occur in the pupal stage or emerging adults may have wrinkled wings or other deformities. The number of eggs produced by treated females may be reduced and/or unfertile. Although acute toxicity is desirable in the control of any insect, the delayed effects which result in poor survival and reduced reproductive capacity are significant factors in the long-range program of pest management systems.
Continuous cultures of M. sexta are maintained according to the procedures of Yamamoto, J. Econ. Entomol., 62, p. 1427 (1969). Ingredients of the diet formulation include sugar, casein, wheat germ oil, cholesterol, salt mixture, yeast, vitamins, antioxidants and fungal inhibitors, such as ascorbic acid, sorbic acid, formaldehyde and methyl-p-benzoate. All are incorporated into a liquid agar base which, when poured into holding pans, solidifies to form an adequate substrate upon which the insect larvae feed. Nearly any test material can be uniformly incorporated into such a diet. Thus, exposure to experimental compounds can be evaluated during all or any part of the larval stage. In addition, chronic or long-term effects in subsequent life stages can also be monitored.
The results from these studies, in which the 1,2-diphenylaziridines of Example 1 were incorporated singly into the diet of M. sexta at a concentration of 5 mM are presented in the following Table I.

[4] = tested on: H. virescens; experiment: Incorporation into H. virescens diet; type: in vivo, Heliothis virescens; details: as much as 20 mM in diet
Protocol: Compounds 1, 10, 11, 13 and 14 were incorporated into H. virescens diet in the same manner as M. Sexta. Diets containing as much as 20 mM of each compound had little effect on larval development time, pupal weight or time to adult emergence.

## Clc1ccccc1C1CN1c1ccc(Br)cc1 (stereo not shown) [Compound 1]
[1]; strain TA 98, +S9
  Mean number of revertant colonies per plate, TA 98 +S9: 44.0 colonies per plate
[1]; strain TA 98, -S9
  Mean number of revertant colonies per plate, TA 98 -S9: 32.7 colonies per plate
[1]; strain TA 100, +S9
  Mean number of revertant colonies per plate, TA 100 +S9: 61.7 colonies per plate
[1]; strain TA 100, -S9
  Mean number of revertant colonies per plate, TA 100 -S9: 25.3 colonies per plate
[1]; strain TA 1535, +S9
  Mean number of revertant colonies per plate, TA 1535 +S9: 15.0 colonies per plate
[1]; strain TA 1535, -S9
  Mean number of revertant colonies per plate, TA 1535 -S9: 17.3 colonies per plate
[1]; strain TA 1537, +S9
  Mean number of revertant colonies per plate, TA 1537 +S9: 13.3 colonies per plate
[1]; strain TA 1537, -S9
  Mean number of revertant colonies per plate, TA 1537 -S9: 7.5 colonies per plate
[1]; strain TA 1538, +S9
  Mean number of revertant colonies per plate, TA 1538 +S9: 26.7 colonies per plate
[1]; strain TA 1538, -S9
  Mean number of revertant colonies per plate, TA 1538 -S9: 12.0 colonies per plate
[1]; strain TA 1978, +S9
  Mean number of revertant colonies per plate, TA 1978 +S9: 189.0 colonies per plate
[1]; strain TA 1978, -S9
  Mean number of revertant colonies per plate, TA 1978 -S9: 207.3 colonies per plate
[1]; with and without S9 / mammalian liver enzymes
  mutagenicity: not mutagenic
[2]; 1000 μg/larva (800 ppm), within 48 hr
  larvae killed: 70%
[2]; 400 ppm topical
  developmental effects: delayed larval development, reduced maximum size and the number of resulting eggs
[3]; 1 mM in diet
  % Adult Emergence: 100%
  % Adults: 100%
  % Malformed Adults: 0%
  % Pupation: 100%
  Days to Max Wt: 5.8 ± .2 days
  Max Larval Wt: 7.94 g
  Mean No. of Eggs: 32 ± 9
  No. of female Adults: 10
  Total No. of Adults: 15
  larval weight: a slight reduction in larval weight
[3]; 1 mM in diet, relative to controls
  mean number of eggs: only half that of the controls
[3]; 2.5 mM in diet
  % Adult Emergence: 100%
  % Adults: 27%
  % Malformed Adults: 50%
  % Pupation: 27%
  Days to Max Wt: 6.2 ± 0.7 days
  Max Larval Wt: 4.99 g
  Mean No. of Eggs: 8 ± 9
  No. of female Adults: 2
  Total No. of Adults: 4
  malformed adults: a large percentage
  maximum larval weight and mean number of eggs: reduced maximum larval weight and the mean number of eggs
  percent pupation: lowered the percent pupation
[3]; 5 mM in diet
  larval death (words in table): ALL DEAD BY SECOND DAY OF FEEDING
  larval mortality: all or nearly all larvae died
  symptoms of larvae: extreme agitation of larvae, oral and anal expulsion of fluids and ultimately, death
  time until all larvae dead: ≥ 48 h
[3]; diet, Example 2
  oral activity: good oral activity
[3]; in 24-72 hours, summary of Tables I and II
  larval mortality (acute toxicity): 100%
[3]; summary of Tables I and II
  time to 100% larval mortality: 24 to 72 h
[4]
  effect on larval development time, pupal weight or time to adult emergence: little effect

From patent publication US4582827A, “Pesticidal diphenylaziridines” (priority 1983, dated 1986)
